Measurements from patent publication US20230187019A1, “METHOD FOR DETERMINING A DRUG COMBINATION VIA A BLOCKING MODEL OF A MULTI-SITE-TARGETED PROTEIN AND APPLICATIONS THEREOF” (National Tsing Hua University, priority 2021, published 2023).
“And” between values parts separate entries of the source, which are not always exact repeats. Identical values can stand only once. Like-named read-outs stand apart in the source and are kept apart here.

Tests used:
ATG4B [1] = biological target: T1, ATG4B (Homo sapiens, UniProt Q9Y4P1); test: In vitro cleavage assay of ATG4B catalytic activity (western blot of tagged LC3B); assay type: biochemical
T1 sequence (Q9Y4P1 whole entry, looked up): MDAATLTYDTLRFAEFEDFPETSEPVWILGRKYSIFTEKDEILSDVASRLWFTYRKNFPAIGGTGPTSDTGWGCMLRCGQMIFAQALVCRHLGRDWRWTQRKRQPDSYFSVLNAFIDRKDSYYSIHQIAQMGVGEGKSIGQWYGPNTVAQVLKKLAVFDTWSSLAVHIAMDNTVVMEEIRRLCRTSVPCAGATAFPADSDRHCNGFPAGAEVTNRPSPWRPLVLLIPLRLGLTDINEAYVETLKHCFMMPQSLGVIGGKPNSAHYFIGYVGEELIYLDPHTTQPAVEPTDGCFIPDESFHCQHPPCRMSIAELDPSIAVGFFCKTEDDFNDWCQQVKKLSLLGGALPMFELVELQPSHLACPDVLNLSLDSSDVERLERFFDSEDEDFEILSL

ATG4B [2] = biological target: T2, ATG4B (Homo sapiens, UniProt Q9Y4P1); test: as above; assay type: biochemical; settings: read-out: inhibition on ATG4B's catalytic activity
HCT116 = test: Cell viability assay on HCT116; assay type: cell-based, human; settings: for viability at 20 µM: Homo sapiens, HCT-116, remaining viability, read-out: HCT116 Cell Viability; for viability at 20 µM / HCT116 Cell Viability: 20 μM drug, normalized by blank control, three repeats; for HCT116 Cell Viability: remaining viability
shCtrl/HCT116 = test: Cell viability assay on shCtrl/HCT116 (control strain); assay type: cell-based, human; settings: 20 μM drug, C strain; for viability at 20 µM: Homo sapiens, HCT-116, remaining viability, read-out: shCtrl/HCT116 Cell Viability
shATG4B/HCT116 = test: Cell viability assay on shATG4B/HCT116 (ATG4B silencing strain); assay type: cell-based, human; settings: 20 μM drug, S strain; for viability at 20 µM: Homo sapiens, HCT-116, remaining viability, read-out: shATG4B/HCT116 Cell Viability
ATG4B [3] = biological target: T2, ATG4B; test: ATG4B enzyme activity assay by S-tag-based immunoblotting; assay type: biochemical; settings: read-out: inhibition of ATG4B catalysis
Source text: Protein expression and purification for the study of prediction of the allosteric sites in ATG4B Human ATG4B with N-terminal 6xHis-tag and human LC3B with both N-terminal 6xHis-tag and C-terminal S-tag were cloned into pETDuet-1 expression plasmids as previously described (Shu, C W et al., 2010, Autophagy 6, 936-947), subsequently transformed into E. coli BL21 (ECOS 21, Yeastern Biotech Co., FYE207-40VL). A single colony harboring the correctly in-frame inserted gene was inoculated into an overnight culture that was then diluted 100-fold in fresh Luria-Bertani broth with 50 μg/mL ampicillin for growing at 37° C. with 200 rpm agitation for 2 to 3 hours until the optical density of the culture at 600 nm reaches 0.4 (around 3×10^8 cells/mL). […]
The expression cell culture was harvested by 12,000×g centrifugation at 4° C. for 20 minutes, and the cell pellets of 1 liter broth were resuspended in a 10 mL lysis buffer (50 mM Tris-HCl, pH 7.4, 300 mM NaCl, 20 mM imidazole). […] The protein purity was verified >90% by Coomassie blue staining on SDS-PAGE, and the quantity was measured by bicinchoninic acid assay.
ATG4B enzyme activity assay was analyzed by immunoblotting. […] The intensities of remaining substrate LC3B after enzymatic cleavage were quantified by the software ImageJ.

AK4.4 = test: Cell viability assay (MTT) on AK4.4; settings: for IC50: Mus musculus
AsPC-1 = test: Cell viability assay (MTT) on AsPC-1; settings: for viability at 20 µM / IC50: Homo sapiens; for viability at 20 µM: ASPC1, read-out: AsPC-1 Cell Viability, remaining viability, 20 μM drug, normalized by blank control, three repeats; for AsPC-1 Cell Viability: remaining viability, 20 μM drug, normalized by blank control, three repeats
[4] = system: AK4.4 pancreatic ductal adenocarcinoma (PDAC) xenograft; settings: dose of 20 mg/kg, I.P.
[5] = in vivo
ATG4B [6] = biological target: T1, ATG4B; test: ATG4B activity reporter assay (cleaved PLA2 fluorescence); assay type: biochemical; set-up: host or cells: in silico model from PDB 2Z0D
[7] = biological target: full-length fusion protein composed of C-Myc, pro-LC3B, and S-tag, Q9GZQ8
[8] = Tc concentration for 50% reduction of viability in combination with 0.50 μM Mx
[9] = Tc concentration for 50% reduction of viability in combination with 1.00 μM Mx
[10] = Tc concentration for 50% reduction of viability in combination with 2.5 μM Vb
[11] = Tc concentration for 50% reduction of viability in combination with 5 μM Vb
[12] = Tc concentration for 50% reduction of viability in combination with 10 μM Vb

## Ac-YDTLGIF-NH2 [N-term-7]
ATG4B [1]; 1 μM peptide
  inhibition to ATG4B activity at lower peptide concentration: maintained
ATG4B [1]; ATG4B cleavage assays, 10 μM peptide
  inhibition to ATG4B activity: about 30%

## CO/N=C1\C[C@]2(C[C@@H]3C[C@@H](C/C=C(\C)C[C@@H](C)/C=C/C=C4\CO[C@@H]5[C@H](O)C(C)=C[C@@H](C(=O)O3)[C@]45O)O2)O[C@H](/C(C)=C/C(C)C)[C@H]1C [Moxidectin]
ATG4B [2]; 10 μM
  inhibition at 10 µM: 38%
HCT116
  viability at 20 µM: 2%
  HCT116 Cell Viability: 1.7 ± 0.1%
shCtrl/HCT116
  viability at 20 µM: 1%
shATG4B/HCT116
  viability at 20 µM: 1%
shATG4B/HCT116; remaining viability
  shATG4B/HCT116 Cell Viability: 0.9 ± 0.1%
ATG4B [3]; 10 μM
  inhibition at 10 µM: 36%
ATG4B [3]; 20 μM
  inhibition at 20 µM: > 80%
AK4.4; read-out: IC50, Mx, moxidectin alone, AK4.4 (Table 12)
  IC50: 1.07 µM
AK4.4; read-out: IC50, Mx, moxidectin alone, AK4.4 (Table 14)
  IC50: 0.87 µM
AK4.4; Mx concentration in combination with Tc for a 50% reduction of the cell viability, listed as Mx
  CMx, 50: 0.50 µM and 1.00 µM
AK4.4; Mx concentration in combination with Vb for a 50% reduction of the cell viability
  CMx, 50: 0.50 µM
AsPC-1
  viability at 20 µM: 8%
  AsPC-1 Cell Viability: 7.8 ± 0.8%
AsPC-1; ASPC1, read-out: IC50, Mx, moxidectin alone, AsPC-1 (Table 13)
  IC50: 1.38 µM
AsPC-1; ASPC1, read-out: IC50, Mx, moxidectin alone, AsPC-1 (Table 15)
  IC50: 1.24 µM
AsPC-1; Mx concentration in combination with Vb for a 50% reduction of the cell viability, listed as Mx
  CMx, 50: 0.50 µM and 1.00 µM

## Clc1ccc(C(Cn2ccnc2)OCc2ccsc2Cl)c(Cl)c1 (stereo not drawn) [tioconazole]
HCT116; human, 10 μM
  decrease of cell viability of HCT116: 33%
[4]
  tumor size measured on day 16 versus control group: less than half of the tumor size in the control group
[5]
  liver weight, % of mouse body weight: 5.69%
[5]; mouse
  increase in the liver (relative organ weight): 8%
  increase in triglyceride as compared to the control: 25%
  triglyceride: 198.2 mg/dL
AK4.4; read-out: IC50, Tc, tioconazole alone, AK4.4 (Table 8)
  IC50: 14 µM
AK4.4; read-out: IC50, Tc, tioconazole alone, AK4.4 (Table 11)
  IC50: 12.5 µM
AK4.4; read-out: IC50, Tc, tioconazole alone, AK4.4 (Table 12)
  IC50: 13 µM
AK4.4; Tc concentration for 50% reduction of viability in combination with 0.05 μM Pn
  CTc, 50: 12.31 µM
AK4.4; Tc concentration for 50% reduction of viability in combination with 0.1 μM Pn
  CTc, 50: 11.85 µM
AK4.4; Tc concentration for 50% reduction of viability in combination with 0.25 μM Pn
  CTc, 50: 5.86 µM
AK4.4; [8]
  CTc, 50: 13.42 µM
AK4.4; Tc concentration for 50% reduction of viability in combination with 0.5 μM Pn
  CTc, 50: 0.17 µM
AK4.4; [9]
  CTc, 50: 4.21 µM
AK4.4; [10]
  CTc, 50: 12.07 µM
AK4.4; [11]
  CTc, 50: 8.43 µM
AK4.4; [12]
  CTc, 50: 5.88 µM
AsPC-1; ASPC1, read-out: IC50, Tc, tioconazole alone, AsPC-1 (Table 9)
  IC50: 13.5 µM
AsPC-1; ASPC1, read-out: IC50, Tc, tioconazole alone, AsPC-1 (Table 13)
  IC50: 9.61 µM
AsPC-1; [8]
  CTc, 50: 8.61 µM
AsPC-1; [9]
  CTc, 50: 7.83 µM
AsPC-1; Tc concentration for 50% reduction of viability in combination with 1.25 μM Mx
  CTc, 50: 5.65 µM
AsPC-1; [10]
  CTc, 50: 8.14 µM
AsPC-1; [11]
  CTc, 50: 6.32 µM
AsPC-1; [12]
  CTc, 50: 5.21 µM

## Ac-YDTLRFAEF-NH2 [N-term-9]
ATG4B [6]; 1 μM peptide
  inhibition to ATG4B activity at lower peptide concentration: maintained
ATG4B [6]; ATG4B activity reporter assays, 10 μM peptide
  inhibition to ATG4B activity: ~25%

## Cc1ccc(C(=O)Nc2ccc(CN3CCN(C)CC3)c(C(F)(F)F)c2)cc1C#Cc1cnc2cccnn12 [Ponatinib]
ATG4B [2]
  inhibition at 5 µM: 30%
HCT116
  viability at 20 µM: 19%
  HCT116 Cell Viability: 18.5 ± 0.6%
shCtrl/HCT116
  viability at 20 µM: 21%
shCtrl/HCT116; remaining viability
  shCtrl/HCT116 Cell Viability: 21.3 ± 0.6%
shATG4B/HCT116
  viability at 20 µM: 31%
AK4.4; read-out: IC50, Pn
  IC50: 0.51 µM
AsPC-1
  viability at 20 µM: 47%
  AsPC-1 Cell Viability: 47.2 ± 1.3%

B1: autophagy related 4B cysteine peptidase (ATG4B) (protein)
chain: MDAATLTYDTLRFAEFEDFPETSEPVWILGRKYSIFTEKDEILSDVASRLWFTYRKNFPAIGGTGPTSDTGWGCMLRCGQMIFAQALVCRHLGRDWRWTQRKRQPDSYFSVLNAFIDRKDSYYSIHQIAQMGVGEGKSIGQWYGPNTVAQVLKKLAVFDTWSSLAVHIAMDNTVVMEEIRRLCRTSVPCAGATAFPADSDRHCNGFPAGAEVTNRPSPWRPLVLLIPLRLGLTDINEAYVETLKHCFMMPQSLGVIGGKPNSAHYFIGYVGEELIYLDPHTTQPAVEPTDGCFIPDESFHCQHPPCRMSIAELDPSIAVGFFCKTEDDFNDWCQQVKKLSLLGGALPMFELVELQPSHLACPDVLNLSLDSSDVERLERFFDSEDEDFEILSL
[7]
  cleavage of recombinant pro-LC3B (S-tag band on western blot): P: positive control, pro-LC3 mixed with ATG4B, and the cleavage by ATG4B resulting in the lighter band for S-tag
  normalized S-tag band intensity (LICOR; divided by the negative control N) of lane P, no peptide, blot of the N7 series, ATG4B cleavage assay: 0.3
  normalized S-tag band intensity (divided by the negative control N) of lane P, no peptide, blot of the N18 series, ATG4B cleavage assay: 0.3
  normalized S-tag band intensity (image J; divided by the negative control N) of lane P, no peptide, blot of the N7 series, ATG4B cleavage assay: 0.4
